We go through 30 molecules from article PMC10343887, “Structural Optimization of BIPPO Analogs as Potent Antimalarials” (Molecules, 2023).

A short description of data set [1]: Non-specific toxicity control on human MRC-5 cells. Format: cell-based.
A further data set relates to P. falciparum. Put plainly: Antimalarial screening against asexual blood stage P. falciparum. Format: cell-based, Plasmodium falciparum. Conditions: for IC50: Plasmodium falciparum, potency against asexual blood stage of P. falciparum, average values n ≥ 2, s.d. < 0.3, read-out: P. fal pIC50 (converted); for fold decreased antimalarial potency compared to 3 / fold potency decrease compared with 30: P. falciparum; for fold decreased antimalarial potency compared to 3: relative to 3; for fold potency decrease compared with 30: relative to 30. How it is done: Previously, Howard et al. reported (sub)micromolar activity against P. falciparum for a series of BIPPO analogs with benzyl substituents. To further understand the structure–activity relationship (SAR) of this interesting scaffold, close analogs of 3 with substituents at R^1–R^4 positions were tested against P. falciparum and human MRC-5 cells as the control for non-specific toxicity (Table 1).
The assay for antimalarial activity was carried out as described in detail in Pereira et al..

Setting [2] is: human MRC-5 cells, average values n ≥ 2, s.d. < 0.3, read-out: MRC-5 pIC50 (converted).

Like-named read-outs stand apart in the source and are kept apart here.

`CC(C)c1n[nH]c2c(=O)[nH]c(C(C)c3ccccc3)nc12` (racemic) [compound 13, (racemic)-3-Isopropyl-5-(1-phenylethyl)-1,6-dihydro-7H-pyrazolo[4,3-d]pyrimidin-7-one]: the IC50 in data set [1] (setting [2]) was above 63.1 µM; with P. falciparum, 1.26 µM.

`COC(c1ccccc1)c1nc2c(C(C)C)n[nH]c2c(=O)[nH]1` (racemic) [compound 15, (racemic)-3-Isopropyl-5-(methoxy(phenyl)methyl)-1,6-dihydro-7H-pyrazolo[4,3-d]pyrimidin-7-one]: the IC50 in data set [1] (setting [2]) was above 63.1 µM. In addition, in the data set with P. falciparum, the “fold decreased antimalarial potency compared to 3” value is recorded as 5- to 25 fold and the IC50 is 7.94 µM.

`CC(C)c1nn(C)c2c(=O)[nH]c(Cc3ccccc3)nc12` [37a, 5-Benzyl-3-isopropyl-1-methyl-1,6-dihydro-7H-pyrazolo[4,3-d]pyrimidin-7-one]: the IC50 in data set [1] (setting [2]) is above 63.1 µM; in the data set with P. falciparum it was 10 µM.

`CC(C)c1c2nc(Cc3ccccc3)[nH]c(=O)c2nn1C` [37b, 5-Benzyl-3-isopropyl-2-methyl-2,6-dihydro-7H-pyrazolo[4,3-d]pyrimidin-7-one]: the IC50 in data set [1] (setting [2]) was above 63.1 µM; in the data set with P. falciparum, 5.01 µM.

On to `CC(C)c1nn(C)c2c(=O)[nH]c(C34CC5CC(CC(C5)C3)C4)nc12` [38a, 5-(Adamantan-1-yl)-3-isopropyl-1-methyl-1,6-dihydro-7H-pyrazolo[4,3-d]pyrimidin-7-one], for which, in data set [1] (setting [2]), the IC50 was above 63.1 µM. Besides, in the data set on P. falciparum, the “fold potency decrease compared with 30” value is reported as “more than 400 fold” and the IC50 is above 63.1 µM.

Regarding `CC(C)c1c2nc(C34CC5CC(CC(C5)C3)C4)[nH]c(=O)c2nn1C` [38b, 5-(Adamantan-1-yl)-3-isopropyl-2-methyl-2,6-dihydro-7H-pyrazolo[4,3-d]pyrimidin-7-one], the IC50 is above 63.1 µM in data set [1] (setting [2]) and 2.51 µM in the data set on P. falciparum. In addition, the “fold potency decrease compared with 30” value in the data set on P. falciparum is “more than 15 fold”.

Take `CC(C)(C)c1n[nH]c2c(=O)[nH]c(Cc3ccccc3)nc12` [46a, 5-Benzyl-3-(tert-butyl)-1,6-dihydro-7H-pyrazolo[4,3-d]pyrimidin-7-one]: the figures for the IC50 (in data set [1] (setting [2]); in the data set with P. falciparum) were 39.8 µM and 1.58 µM, respectively.

With `O=c1[nH]c(Cc2ccccc2)nc2c(C3CCCC3)n[nH]c12` [46b, 5-Benzyl-3-cyclopentyl-1,6-dihydro-7H-pyrazolo[4,3-d]pyrimidin-7-one], the IC50 in data set [1] (setting [2]) is above 63.1 µM; in the data set on P. falciparum, 1.58 µM.

With `CC(C)c1n[nH]c2c(=O)[nH]c(Cc3ccccc3)nc12` [compound 3, 5-Benzyl-3-isopropyl-1,6-dihydro-7H-pyrazolo[4,3-d]pyrimidin-7-one], the IC50 in data set [1] (setting [2]) is above 63.1 µM; in the data set with P. falciparum, 1.26 µM.

Consider `CC(C)c1n[nH]c2c(=O)[nH]c(Cc3ccncc3)nc12` [compound 4, 3-Isopropyl-5-(pyridin-4-ylmethyl)-1,6-dihydro-7H-pyrazolo[4,3-d]pyrimidin-7-one], for which the IC50 in data set [1] (setting [2]) is above 63.1 µM. In the data set with P. falciparum, the “fold decreased antimalarial potency compared to 3” value is “six” and the IC50 is 7.94 µM.

As for `CC(C)c1n[nH]c2c(=O)[nH]c(-c3ccccc3)nc12` [compound 6, 3-Isopropyl-5-phenyl-1,6-dihydro-7H-pyrazolo[4,3-d]pyrimidin-7-one], the results for the IC50 (in data set [1] (setting [2]); in the data set with P. falciparum) were above 63.1 µM and 31.6 µM, respectively. Moreover, the “fold decreased antimalarial potency compared to 3” value with P. falciparum is reported as 5- to 25 fold.

Take `CC(C)c1n[nH]c2c(=O)[nH]c(-c3ccc(N4CCN(C)CC4)cc3)nc12` [compound 7, 3-Isopropyl-5-(4-(4-methylpiperazin-1-yl)phenyl)-1,6-dihydro-7H-pyrazolo[4,3-d]pyrimidin-7-one]: the IC50 was above 39.8 µM in data set [1] (setting [2]) and 7.94 µM in the data set with P. falciparum.

As for `CC(C)c1n[nH]c2c(=O)[nH]c(-c3ccc(N4CCCCC4)cc3)nc12` [compound 8, 3-Isopropyl-5-(4-(piperidin-1-yl)phenyl)-1,6-dihydro-7H-pyrazolo[4,3-d]pyrimidin-7-one], the IC50 in data set [1] (setting [2]) is above 63.1 µM; with P. falciparum, above 50.1 µM.

For `CC(C)c1n[nH]c2c(=O)[nH]c(-c3cscn3)nc12` [compound 9, 3-Isopropyl-5-(thiazol-4-yl)-1,6-dihydro-7H-pyrazolo[4,3-d]pyrimidin-7-one], the IC50 (in data set [1] (setting [2]); in the data set with P. falciparum) was above 63.1 µM in each case.

For `CC(C)c1n[nH]c2c(=O)[nH]c(-c3ccc(=O)n(C)c3)nc12` [compound 10, 3-Isopropyl-5-(1-methyl-6-oxo-1,6-dihydropyridin-3-yl)-1,6-dihydro-7H-pyrazolo[4,3-d]pyrimidin-7-one], the IC50 (in data set [1] (setting [2]); with P. falciparum) was above 63.1 µM in each case.

Regarding `CC(C)c1n[nH]c2c(=O)[nH]c(-c3ccn(C)c(=O)c3)nc12` [compound 11, 3-Isopropyl-5-(1-methyl-2-oxo-1,2-dihydropyridin-4-yl)-1,6-dihydro-7H-pyrazolo[4,3-d]pyrimidin-7-one], the IC50 (in data set [1] (setting [2]); in the data set with P. falciparum) was above 63.1 µM in each case.

As for `CC(C)c1n[nH]c2c(=O)[nH]c(CCc3ccccc3)nc12` [compound 12, 3-Isopropyl-5-phenethyl-1,6-dihydro-7H-pyrazolo[4,3-d]pyrimidin-7-one], in data set [1] (setting [2]), the IC50 is above 63.1 µM. For the same molecule, in the data set on P. falciparum, the “fold decreased antimalarial potency compared to 3” value is reported as 5- to 25 fold and the IC50 is 6.31 µM.

As for `CC(C)c1n[nH]c2c(=O)[nH]c(C(C)(C)c3ccccc3)nc12` [compound 14, 3-Isopropyl-5-(2-phenylpropan-2-yl)-1,6-dihydro-7H-pyrazolo[4,3-d]pyrimidin-7-one], the IC50 in data set [1] (setting [2]) is above 63.1 µM; in the data set with P. falciparum it was 1 µM.

As to `CC(C)c1n[nH]c2c(=O)[nH]c(C3(c4ccccc4)CC3)nc12` [compound 16, 3-Isopropyl-5-(1-phenylcyclopropyl)-1,6-dihydro-7H-pyrazolo[4,3-d]pyrimidin-7-one], in data set [1] (setting [2]), the IC50 is above 63.1 µM. Moreover, in the data set on P. falciparum, the “fold decreased antimalarial potency compared to 3” value is given as 5- to 25 fold and the IC50 is 3.16 µM.

As to `CC(C)c1n[nH]c2c(=O)[nH]c(C3(c4ccccc4)CCC3)nc12` [compound 17, 3-Isopropyl-5-(1-phenylcyclobutyl)-1,6-dihydro-7H-pyrazolo[4,3-d]pyrimidin-7-one], the values for the IC50 (in data set [1] (setting [2]); with P. falciparum) were 25.1 µM and 1.58 µM, respectively.

As for `CC(C)c1n[nH]c2c(=O)[nH]cnc12` [compound 18, 3-Isopropyl-1,6-dihydro-7H-pyrazolo[4,3-d]pyrimidin-7-one], the IC50 (in data set [1] (setting [2]); in the data set with P. falciparum) was above 63.1 µM each time.

For the molecule `Cc1nc2c(C(C)C)n[nH]c2c(=O)[nH]1` [compound 19, 3-Isopropyl-5-methyl-1,6-dihydro-7H-pyrazolo[4,3-d]pyrimidin-7-one], the IC50 in data set [1] (setting [2]) was above 63.1 µM; in the data set with P. falciparum, 39.8 µM.

`CC(C)c1nc2c(C(C)C)n[nH]c2c(=O)[nH]1` [compound 20, 3,5-Diisopropyl-1,6-dihydro-7H-pyrazolo[4,3-d]pyrimidin-7-one]: the IC50 in data set [1] (setting [2]) is above 63.1 µM; with P. falciparum, 3.98 µM.

On to `CCCCc1nc2c(C(C)C)n[nH]c2c(=O)[nH]1` [compound 21, 5-Butyl-3-isopropyl-1,6-dihydro-7H-pyrazolo[4,3-d]pyrimidin-7-one], for which the results for the IC50 (in data set [1] (setting [2]); with P. falciparum) were above 63.1 µM and 1.26 µM, respectively.

For the molecule `CC(C)c1n[nH]c2c(=O)[nH]c(C3CCCC3)nc12` [compound 22, 5-Cyclopentyl-3-isopropyl-1,6-dihydro-7H-pyrazolo[4,3-d]pyrimidin-7-one], the IC50 in data set [1] (setting [2]) was above 63.1 µM; in the data set with P. falciparum, 0.794 µM.

For `CC(C)c1n[nH]c2c(=O)[nH]c(C3CCOCC3)nc12` [compound 24, 3-Isopropyl-5-(tetrahydro-2H-pyran-4-yl)-1,6-dihydro-7H-pyrazolo[4,3-d]pyrimidin-7-one], the IC50 in data set [1] (setting [2]) is above 63.1 µM; in the data set on P. falciparum, 5.01 µM.

Regarding `CC(C)c1n[nH]c2c(=O)[nH]c(C3CCN(C)CC3)nc12` [compound 25, 3-Isopropyl-5-(1-methylpiperidin-4-yl)-1,6-dihydro-7H-pyrazolo[4,3-d]pyrimidin-7-one diformate], the IC50 (in data set [1] (setting [2]); with P. falciparum) was above 63.1 µM each time.

For the molecule `CC(C)c1n[nH]c2c(=O)[nH]c([C@H]3CC[C@@H](O)CC3)nc12` [compound 26, cis-5-(4-Hydroxycyclohexyl)-3-isopropyl-1,6-dihydro-7H-pyrazolo[4,3-d]pyrimidin-7-one], the IC50 in data set [1] (setting [2]) is above 63.1 µM.

For `CC(C)c1n[nH]c2c(=O)[nH]c([C@H]3CC[C@H](O)CC3)nc12` [compound 27, trans-5-(4-Hydroxycyclohexyl)-3-isopropyl-1,6-dihydro-7H-pyrazolo [4,3-d]pyrimidin-7-one], the IC50 in data set [1] (setting [2]) was above 63.1 µM; in the data set with P. falciparum it was 5.01 µM.

As to `CC(C)c1n[nH]c2c(=O)[nH]c(C3CCNCC3)nc12` [compound 32, 3-Isopropyl-5-(piperidin-4-yl)-1,6-dihydro-7H-pyrazolo[4,3-d]pyrimidin-7-one], the IC50 (in data set [1] (human); in the data set on P. falciparum) was above 63.1 µM in each case.
